Measurements: patent US20090105278A1, “Selective inhibitors of human corticosteroid syntheses” (Universitat Des Saarlandes, priority 2004, published 2009)
Structures can show the parent of a compound that is named as a salt.

Key:
human placental CYP19 = target: T1, human placental CYP19 (Homo sapiens, UniProt P11511); assay: IC50 of CYP19 (human placental microsomes); assay type: biochemical; settings: human placental CYP19; testosterone substrate 2.5 μM
T1 construct: The enzyme was obtained from the microsome fraction of fresh human placenta; from tissue; host or cells: human placenta, microsomal fraction
T1 sequence (P11511 1-503): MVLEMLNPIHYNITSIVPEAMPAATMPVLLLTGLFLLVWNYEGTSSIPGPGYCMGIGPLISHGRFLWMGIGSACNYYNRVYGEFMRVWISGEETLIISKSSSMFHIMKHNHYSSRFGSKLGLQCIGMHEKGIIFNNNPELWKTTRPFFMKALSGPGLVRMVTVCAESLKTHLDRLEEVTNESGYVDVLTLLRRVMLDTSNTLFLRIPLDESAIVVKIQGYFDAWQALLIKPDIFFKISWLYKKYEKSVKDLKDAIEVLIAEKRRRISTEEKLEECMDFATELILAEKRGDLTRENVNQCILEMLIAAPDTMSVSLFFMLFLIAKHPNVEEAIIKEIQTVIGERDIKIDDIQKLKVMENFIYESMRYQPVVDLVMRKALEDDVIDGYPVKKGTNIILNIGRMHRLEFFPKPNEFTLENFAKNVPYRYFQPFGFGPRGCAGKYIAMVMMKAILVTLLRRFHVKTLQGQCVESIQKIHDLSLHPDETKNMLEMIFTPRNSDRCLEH
Experimental: The isolated microsomes were suspended in a minimum volume of phosphate buffer (0.05 M; pH 7.4; […]). In addition, DTT (10 mM) and EDTA (1 mM) were added to protect the enzyme from degradation reactions.
[…] […] The compounds to be tested were dissolved in DMSO and diluted with buffer to the desired concentration. The final DMSO concentration of the control and inhibitor incubations was about 20%. Each vessel was preincubated in a water bath at 30° C. for 5 min. The reaction was started by adding the microsomal protein (0.1 mg). The total volume of each mixture was 200 μl. After 14 min, the reaction was quenched by adding 200 μl of ice cold 1 mM HgCl2 solution. Two hundred microliters of a 2% aqueous suspension of dextran-coated charcoal, DCC) was added for absorbing the steroids, and the vessels were shaken for 20 min. Thereafter, the charcoal was centrifuged off at 1500 g for 5 min. The radioactive water present in the supernatant (^3H2O) was assayed by scintillation measurement using an LKB-Wallac beta counter. The calculation of the IC50 values was effected by a semilogarithmic plot of the percent inhibition against the inhibitor concentration.

human CYP11B2 = target: T2, human CYP11B2 (Homo sapiens, UniProt P19099); assay: V79 MZh 11B2 cells inhibition test; assay type: cell-based; design: expressed in transfected cells; host or cells: V79 MZh11B2 (Chinese hamster lung fibroblasts); settings: hamster fibroblasts which express human CYP11B2; deoxycorticosterone substrate 100 nM; read-out: IC50 V79 11B2 hCYP11B2
T2 sequence (P19099 25-503): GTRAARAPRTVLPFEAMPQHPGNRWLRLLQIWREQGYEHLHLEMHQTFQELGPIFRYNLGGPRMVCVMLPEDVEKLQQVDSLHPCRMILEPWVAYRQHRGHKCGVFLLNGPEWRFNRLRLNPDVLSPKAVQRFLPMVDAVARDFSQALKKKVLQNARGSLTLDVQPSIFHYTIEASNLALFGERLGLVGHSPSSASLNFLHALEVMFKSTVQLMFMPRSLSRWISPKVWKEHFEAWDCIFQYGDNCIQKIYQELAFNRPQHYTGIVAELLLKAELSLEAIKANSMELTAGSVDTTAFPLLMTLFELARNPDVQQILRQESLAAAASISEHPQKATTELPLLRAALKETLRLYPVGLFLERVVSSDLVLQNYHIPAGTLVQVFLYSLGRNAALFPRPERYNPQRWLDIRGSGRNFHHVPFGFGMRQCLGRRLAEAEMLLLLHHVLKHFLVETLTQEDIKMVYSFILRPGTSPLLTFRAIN
Experimental: Both cell lines were cultured in DMEM^+ containing […] and the antibiotics penicillin and streptomycin (10%) for protection from bacterial contamination. The cells were passaged every 2-3 days after treatment with trypsin/EDTA because the doubling rate was 1-2 days depending on the number of cells. […] When there was further need, freshly thawed cells were employed.
Thereafter, the plate was stored at 37° C. and […] in a CO2 incubator. The V79 MZh 11B1 cells were incubated for 120 min, and the V79 MZh 11B2 cells were incubated for 40 min. Controls without inhibitor were treated in the same way. The enzyme reactions were quenched by extracting the supernatant with 500 μl of EtOAc. The samples were centrifuged (10,000 g, 2 min), the solvent was removed and evaporated.
For V79 MZh11B2, the conversion rate was obtained in accordance with equation 3: […]
It was calculated by determining the percent inhibition for at least 3 different inhibitor concentrations, which must all be in the linear range of the sigmoidal IC50 curve (log C/% inhibition).
The calculation was effected by linear regression. The values determined were used only if they formed a straight line with a reliability of […].
The plate was developed twice with the mobile solvent chloroform:methanol:water (300:20:1). Unlabeled 11-deoxycorticosterone and corticosterone were applied as a reference for the CYP11B1 reaction. For the CYP11B2 reaction, 11-deoxycorticosterone, corticosterone, 18-hydroxycorticosterone and aldosterone were used as references. The detection of the unlabeled references was effected at 260 nm. Subsequently, imaging plates (BAS MS2340, for ^14C samples, Raytest, Straubenhardt, Germany) were exposed to the HPTLC plates for 48 h. The imaging plates were scanned with the phosphoimager system Fuji FLA 3000 (Raytest, Straubenhardt, Germany), and the steroids were quantified.

SMILES | IC50 (human placental CYP19) | IC50 (human CYP11B2)
CCOc1ccc2c(c1)CC/C2=C/c1cccnc1 [Compound 19b, 3-[(Z)-(5-Ethoxy-2,3-dihydro-1H-indane-1-ylidene)methyl]pyridine Hydrochloride] | 7680 nM | 248 nM
Cc1cccc2c1CC/C2=C\c1cccnc1 [Compound 23a, 3-[(E)-(4-Methyl-2,3-dihydro-1H-indane-1-ylidene)methyl]pyridine Hydrochloride] | 4720 nM | 108 nM
Fc1cccc2c1CC/C2=C\c1cccnc1 [Compound 24a, 3-[(E)-(4-Fluoro-2,3-dihydro-1H-indane-1-ylidene)methyl]pyridine Hydrochloride] | 1810 nM | 20.9 nM
Clc1cccc2c1CC/C2=C\c1cccnc1 [Compound 25a, 3-[(E)-(4-Chloro-2,3-dihydro-1H-indane-1-ylidene)methyl]pyridine Hydrochloride] | 130 nM | 8.7 nM
Clc1cccc2c1CC/C2=C/c1cccnc1 [Compound 25b, 3-[(Z)-(4-Chloro-2,3-dihydro-1H-indane-1-ylidene)methyl]pyridine Hydrochloride] | 230 nM | 30.6 nM
COc1cccc2c1/C(=C/c1cccnc1)CC2 [Compound 26a, 3-[(E)-(7-Methoxy-2,3-dihydro-1H-indane-1-ylidene)methyl]pyridine Hydrochloride] | 9740 nM | 26.7 nM
Fc1ccc2c(c1)CC/C2=C\c1cncnc1 [Compound 28a, 5-[(E)-(5-Fluoro-2,3-dihydro-1H-indane-1-ylidene)methyl]pyrimidine Hydrochloride] | 7450 nM | 27.4 nM
Fc1ccc2c(c1)CC/C2=C\c1cccc2cnccc12 [Compound 30a, 5-[(E)-(5-Fluoro-2,3-dihydro-1H-indane-1-ylidene)methyl]isoquinoline Hydrochloride] | 720 nM | 58.1 nM
Fc1ccc2c(c1)CC/C2=C/c1cccc2cnccc12 [Compound 30b, 5-[(Z)-(5-Fluoro-2,3-dihydro-1H-indane-1-ylidene)methyl]isoquinoline Hydrochloride] | 1940 nM | 26.1 nM
